{
  "source": "patent US9682928B2",
  "about": "(NeuroPro Therapeutics, Inc., priority 2009, dated 2017)",
  "key": {"Sprague-Dawley rats": {"tested_on": "Sprague-Dawley rats", "experiment": "Epileptiform activity induced by i.v. kainic acid in urethane-anesthetized rats", "type": "in vivo, rat", "conditions": "intravenous, cumulative dose 40-60 mg/kg", "experimental": "Body temperature was monitored using a rectal temperature probe and maintained at 35-37° C. with a heating pad; heart rate (EKG) was continuously monitored. The jugular vein was cannulated on one side for intravenous drug administration. Rats were placed in a Kopf stereotaxic device (with the top of the skull level), and a bipolar stainless-steel microelectrode insulated to 0.5 mm of the tip was inserted to a depth of 0.5-1.2 mm from the cortical surface to record electroencephalographic (EEG) activity in the fronto-parietal cortex. In some experiments, a 2M NaCl-containing pipette was lowered to a depth of 2.5-3.0 mm to record hippocampal EEG. Data were stored on VHS videotape and analyzed off-line.\nFollowing the surgical preparation and electrode placement, animals were allowed to recover for 30 minutes before the experiments were initiated with an injection of kainic acid (10-12 mg/kg i.v.). […] Experiments were terminated with the intravenous administration of urethane. Animal care was in accordance with NIH guidelines and approved by the University of Washington Animal Care Committee."}, "rats [1]": {"tested_on": "rats", "experiment": "Contextual fear conditioning in rats", "type": "in vivo, rat", "conditions": "I.V.; furosemide 100 mg/kg, bumetanide 50 mg/kg", "experimental": "Contextual fear conditioning involves pairing an aversive event, in this case moderate foot shock, with a distinctive environment. The strength of the fear memory is assessed using freezing, a species-typical defensive reaction in rats, marked by complete immobility, except for breathing. […] However, if they are allowed to explore the distinctive environment sometime before the immediate shock, they show intense anxiety and fear when placed back into the same environment. By procedurally dividing contextual fear conditioning into two phases, the effects of treatments on memory for the context (specifically a hippocampus based process) from learning the association between context and shock or experiencing the aversiveness of the shock (which depend upon emotional response circuitry including amygdala) were separately studied. […] The experiment employed 24 rats. […] Each rat was again placed into the same environment for 8 min during which time freezing was measured, as an index of Pavlovian conditioned fear. […] Measurement of freezing was accomplished through an overhead video camera connected to the microcomputer and was automatically scored using a specialty piece of software, FreezeFrame (OER Inc., Reston, Va.) Total freezing time was analyzed in a one-way analysis of variance (ANOVA) test, with drug dose as the […] factor."}, "rats [2]": {"tested_on": "rats", "experiment": "Fear potentiated startle (FPS) test in rats", "type": "in vivo, rat", "conditions": "i.v.; furosemide 100 mg/kg, bumetanide 70 mg/kg", "experimental": "FPS is a commonly used assessment of therapeutic value of anxiolytic compounds in the rat. Rats received a 30 min period of habituation to the FPS apparatus. 24-hr later baseline startle amplitudes were collected. The rats will be divided into two matched groups based on baseline startle amplitudes. Following baseline startle amplitude collection 20 light/shock pairings were delivered on 2 sessions over 2 consecutive days (i.e., 10 light/shock pairings per day). On the final day, one group of rats received an injection (i.v.) of a bumetanide analog and the other group received vehicle only. Immediately following injections, startle amplitudes were assessed during startle alone trials and startle plus fear (light followed by startle) trials. Fear potentiated startle (light+startle amplitudes minus startle alone amplitudes) was compared between the treatment groups.\nAnimals were trained and tested in four identical stabilimeter devices (Med-Associates). Briefly, each rat was placed in a small Plexiglas cylinder. The floor of each stabilimeter consists of four 6-mm-diameter stainless steel bars spaced 18 mm apart through which shock can be delivered. Cylinder movements result in displacement of an accelerometer where the resultant voltage is proportional to the velocity of the cage displacement. Startle amplitude is defined as the maximum accelerometer voltage that occurs during the first 0.25 sec after the startle stimulus is delivered. The analog output of the accelerometer is amplified, digitized on a scale of 0-4096 units and stored on a microcomputer. Each stabilimeter is enclosed in a ventilated, light-, and sound-attenuating box. All sound level measurements were made with a Precision Sound Level Meter. The noise of a ventilating fan attached to a sidewall of each wooden box produces an overall background noise level of 64 dB. The startle stimulus is a 50 ms burst of white noise (5 ms rise-decay time) generated by a white noise generator. The visual conditioned stimulus used was illumination of a light bulb adjacent to the white noise source. The unconditioned stimulus was a 0.6 mA foot shock with duration of 0.5 sec, generated by four constant-current shockers located outside the chamber. The presentation and sequencing of all stimuli were under the control of the microcomputer.\nFPS procedures consisted of 5 days of testing; during days 1 and 2 baseline startle responses were collected, days 3 and 4 light/shock pairings were delivered, day 5-testing for fear potentiated startle was conducted.\nMatching. On the first two days all rats were placed in the Plexiglas cylinders and 3 min later presented with 30 startle stimuli at a 30 sec interstimulus interval. An intensity of 105 dB was used. […]"}, "primate": {"tested_on": "primate", "experiment": "Acute primate seizure models", "conditions": "in vivo", "text": "FIG. 13 depicts epileptiform spikes and bursts generated using software for the automatic quantification epileptiform activity. FIG. 13A depicts after-discharge activity that was elicited by 4 seconds of electrical stimulation to primate sensory cortex. The software developed by Haglund and Hochman (2007) finds the envelope around a burst of spikes and calculates the duration of the burst, the number of spikes within the burst, and the average spike amplitude of all spikes comprising the burst.\nFIG. 13B depicts a typical spike generated by an acute bicuculline focus in primate motor cortex. The bicuculline model generates epileptiform activity that is similar to spontaneous interictal spiking in human subjects. Analysis of the data by the software identifies the time of occurrence of each spike and its peak-to-peak amplitude. This software can automatically process entire data sets consisting of hours of recorded data from multiple traces and generate an output of the data. Statistical analysis of data sets from multiple experiments can then be used to analyze the effects of various treatments (e.g., compounds that suppress epliptiform activity). See Haglund and Hochman (2007) “Imaging of Intrinsic Optical Signals in Primate Cortex during Epileptiform Activity.” Epilepsia 48(Suppl. 4): 65-74; See also Haglund and Hochman (Feb. 23, 2005) J. Neurophysiol. 94: 907-918."}, "human subjects": {"tested_on": "human subjects", "conditions": "cited from earlier work"}},
  "note": "Where two headings read alike, the source gives them in different places.",
  "data": [
    {"smiles": "NS(=O)(=O)c1cc(C(=O)O)c(NCc2ccco2)cc1Cl", "note": "[Furosemide]", "values": [
      {"measurement": "Kainic acid-evoked seizure activity (electrical status epilepticus)", "setting": "Sprague-Dawley rats", "result": "blocked seizure activity"},
      {"measurement": "Latency to block of seizure activity", "setting": "Sprague-Dawley rats", "result": "30 to 45", "unit": "min"},
      {"measurement": "Freezing vs vehicle alone", "setting": "rats [1]", "result": "significantly less freezing"},
      {"measurement": "Difference score on the test day vs vehicle alone", "setting": "rats [2]", "result": "statistically significantly lower difference score"},
      {"measurement": "Difference score one week after treatment vs vehicle alone", "setting": "rats [2]", "result": "higher difference score"},
      {"measurement": "Suppression of epileptiform activity", "setting": "primate", "result": "suppresses epileptiform activity"},
      {"measurement": "Minimum concentration required to block both the after discharges and optical changes", "setting": "rat hippocampal slices", "result": 1.25, "unit": "mM"},
      {"measurement": "Latency to block of bursting", "setting": "rat hippocampal slices; 0-Ca2+ experiments, 5 mM furosemide", "result": "15 to 20", "unit": "min"},
      {"measurement": "Stimulation-evoked after discharge activity and optical changes", "setting": "rat hippocampal slices; 2.5 mM furosemide, 20 minutes of perfusion", "result": "blocked"},
      {"measurement": "Spontaneous bursts in high-K+ (10 mM) medium", "setting": "rat hippocampal slices; 2.5 mM furosemide, after 45 minutes of perfusion", "result": "blocked in a reversible manner"},
      {"measurement": "Latency to block of bursting", "setting": "rat hippocampal slices; all other protocols, 2.5 mM furosemide", "result": "20 to 60", "unit": "min"},
      {"measurement": "Anticonvulsant resistant bursts after 3 hours of 0-Mg medium", "setting": "rat hippocampal slices; one hour after the addition of furosemide", "result": "blocked"},
      {"measurement": "Average reduction in the duration of stimulation-evoked after-discharge activity", "setting": "human subjects; 8 patients", "result": 85, "unit": "%"},
      {"measurement": "Average reduction in spiking frequency", "setting": "human subjects; five patients, 20 mg intravenous bolus", "result": "approximately 60%"},
      {"measurement": "Mean interspike interval following furosemide treatment", "setting": "human subjects; five patients, 9.6 s prior to furosemide", "result": 21.9, "unit": "s"},
      {"measurement": "Patients with complete blockade of after-discharge activity", "setting": "human subjects; of 8 patients", "result": 4, "unit": "patients"},
      {"measurement": "Patients with reduction by more than 50% of duration and amplitude of after-discharge activity", "setting": "human subjects; of 8 patients", "result": 4, "unit": "patients"}
    ]}
  ]
}
